# How the values were obtained:
# K-562 cells [1] = experiment: Cytotoxicity of BET inhibitor and VX-680 combinations; assay type: cell-based, human; conditions: data not shown
# MV4;11 cells [2] = system: MV4;11 cells
# Aurora-A = conditions: ref [34]–[37]; cited from earlier work
# Aurora-B = conditions: ref [34]–[37]; cited from earlier work
# Aurora-C = conditions: ref [34]–[37]; cited from earlier work
# BRD2(2) = BRD2(2) (Homo sapiens, UniProt P25440); experiment: ALPHA screen, acetylated histone 4 peptide displacement; assay type: binding; conditions: read-out: potency (IC50); displacement of H4K5acK8acK12acK16ac peptide
# CBP [3] = target: T1, CBP (Homo sapiens, UniProt Q92793); experiment: ALPHA screen; assay type: binding
# CBP [4] = target: T1, CBP; assay type: binding; conditions: read-out: affinity; Bio-Layer Interferometry, estimated
# BRD2(1) = BRD2(1) (Homo sapiens, UniProt P25440); experiment: Bio-Layer Interferometry; assay type: binding; conditions: read-out: affinity
# 38 protein kinases = experiment: Screening against protein kinases; assay type: biochemical
# [5] = system: 40 human kinases and 14 human membrane receptors; experiment: Screening against kinases and membrane receptors
# MV4;11 [6] = experiment: Luminescent ATP-based cytotoxicity assay; assay type: cell-based, human; conditions: MV4;11 (MLL/AF4)
# THP-1 [7] = experiment: Luminescent ATP-based cytotoxicity assay; assay type: cell-based, human; conditions: THP-1 (MLL/AF9)
# KASUMI-1 = experiment: Luminescent ATP-based cytotoxicity assay; assay type: cell-based, human; conditions: KASUMI-1 (AML1-ETO)
# NALM-17 = experiment: Luminescent ATP-based cytotoxicity assay; assay type: cell-based, human
# REH = experiment: Luminescent ATP-based cytotoxicity assay; assay type: cell-based, human
# NOMO-1 = experiment: Luminescent ATP-based cytotoxicity assay; assay type: cell-based, human; conditions: NOMO-1 (MLL/AF9)
# SEMKH2 = experiment: Luminescent ATP-based cytotoxicity assay; assay type: cell-based, human; conditions: SEMKH2 (MLL/AF9)
# RS4;11 = experiment: Luminescent ATP-based cytotoxicity assay; assay type: cell-based, human; conditions: RS4;11 (MLL/AF4)
# SUPB-15 = experiment: Luminescent ATP-based cytotoxicity assay; assay type: cell-based, human
# K-562 [8] = experiment: Luminescent ATP-based cytotoxicity assay; assay type: cell-based, human
# MV4;11 [9] = experiment: Clonogenic growth in methylcellulose; assay type: cell-based, human
# THP-1 [10] = experiment: Clonogenic growth in methylcellulose; assay type: cell-based, human
# [11] = system: CD34 positive human haematopoietic stem cells; experiment: Clonogenic growth in methylcellulose; assay type: cell-based; conditions: two different healthy donors
# K562 = experiment: Clonogenic growth in methylcellulose; assay type: cell-based, human
# K-562 cells [12] = experiment: Western blot analysis of treated cells; assay type: cell-based, human
# MV4;11 [13] = experiment: Cell cycle analysis by flow cytometry; assay type: cell-based, human
# K-562 [14] = experiment: Cell cycle analysis by flow cytometry; assay type: cell-based, human
# [15] = system: BRD4 binding to the HOXA9 promoter; experiment: Chromatin immunoprecipitation; assay type: cell-based, human; conditions: ChIP
# [16] = system: HOXA9 mRNA in MV4;11 cells; experiment: qRT-PCR of HOXA9 levels; assay type: cell-based, human
# [17] = system: murine MLL-AF9 leukaemic blasts; experiment: Differentiation of leukaemic blasts; assay type: cell-based; conditions: into cells with polymorphonuclear neutrophil like appearances
# MV4;11 cells [18] = system: MV4;11 cells; remark: listed apart in the source
# [19] = mouse; cited from earlier work
# Sequence of BRD2(2) (P25440 344-455 limits assumed): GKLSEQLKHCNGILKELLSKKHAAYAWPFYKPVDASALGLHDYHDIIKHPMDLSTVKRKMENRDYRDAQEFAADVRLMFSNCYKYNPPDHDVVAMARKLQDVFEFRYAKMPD
# Sequence of BRD2(1) (P25440 71-194 limits assumed): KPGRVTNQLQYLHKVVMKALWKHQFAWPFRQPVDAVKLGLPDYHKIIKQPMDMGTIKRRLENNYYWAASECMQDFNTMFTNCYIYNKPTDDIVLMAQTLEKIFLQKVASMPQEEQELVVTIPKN
smiles,measurement,setting,value
Cc1cc(Nc2cc(N3CCN(C)CC3)nc(Sc3ccc(NC(=O)C4CC4)cc3)n2)[nH]n1 [VX-680],synergy with BET inhibitors,K-562 cells [1],No synergy
same,potency,Aurora-B,18 nM
same,potency,Aurora-C,4.6 nM
COc1ccccc1S(=O)(=O)Nc1ccc2c(c1)CN(C)C(=O)N2 [PFI-1],IC50,BRD2(2),98 nM
same,IC50,CBP [3],too weak for determination of an accurate IC50 value
same,Kd,CBP [4],~11000 nM
same,Kd,BRD2(1),111 nM
same,inhibitory activity,38 protein kinases,no significant inhibitory activity
same,activity,[5],no significant activity
same,GI50,MV4;11 [6],1500 ± 1000 nM
same,GI50,THP-1 [7],4000 ± 2000 nM
same,GI50,KASUMI-1,800 ± 1000 nM
same,GI50,NALM-17,8000 ± 4000 nM
same,GI50,REH,9000 ± 4000 nM
same,GI50,NOMO-1,3000 ± 3000 nM
same,GI50,SEMKH2,2000 ± 2000 nM
same,GI50,RS4;11,2000 ± 2000 nM
same,GI50,SUPB-15,11000 ± 4000 nM
same,activity (growth inhibition),K-562 [8],No significant activity
same,clonogenic growth,MV4;11 [9],strong ablation of clonogenic growth
same,clonogenic growth,THP-1 [10],strong ablation of clonogenic growth
same,clonogenic growth,[11],significantly impaired
same,cell numbers in clonogenic growth assay,K562,significantly reduce cell numbers
same,colony formation,K562,not affected
same,PARP1 and pro-caspase 7 cleavage,K-562 cells [12],neither PARP1 nor pro-caspase 7 cleavage was observed
same,c-Myc levels,K-562 cells [12],only a minor reduction
same,cell cycle,MV4;11 [13],G1/S arrest
same,cell cycle,K-562 [14],not affected
same,BRD4 occupancy of the HOXA9 promoter region,[15],displace BRD4 from the HOXA9 promoter region
same,HOXA9 mRNA,[16]; after 4 h,up-regulated
same,HOXA9 mRNA,[16]; incubation times of 8 h and 24 h,strongly down-regulated
same,differentiation,[17],rapid differentiation
same,c-Myc protein levels,MV4;11 cells [18],significantly lower
same,Aurora B protein levels,MV4;11 cells [18]; 8 h exposure,significant reduction
same,PARP1 and pro-caspase 7 cleavage,MV4;11 cells [18]; 24 h exposure,strong induction
same,protein levels and phosphorylation state of BAD,MV4;11 cells [18]; 24 h exposure,unaffected
same,toxicity in combination with VX-680,MV4;11 cells [2],strong cancer cell toxicity
same,necessary effective dose in vivo,[19],cannot be obtained in vivo
